Test results as given in patent publication US20130281397A1, “TREATMENT OF DISEASES BY EPIGENETIC REGULATION” (RVX Therapeutics Inc., priority 2012, published 2013).

Tests used:
Brd4 bromodomain 1 = target: T1, Brd4 bromodomain 1 (Homo sapiens, UniProt O60885); assay: Inhibition of binding of tetra-acetylated histone H4 and Brd4 bromodomain 1 by TR-FRET; conditions: His-tagged bromodomain 200 nM, biotinylated tetra-acetylated histone H4 peptide 25-50 nM, 2 hours at room temperature
T1 construct: made in house; host or cells: E. coli BL21(DE3)
Procedure: Proteins were cloned and overexpressed with a N-terminal 6×His tag, then purified by nickel affinity followed by size exclusion chromatography. Briefly, E. coli BL21(DE3) cells were transformed with a recombinant expression vector encoding N-terminally […] tagged bromodomains from Brd2, Brd3, or Brd4. Cell cultures were incubated at 37° C. with shaking to the appropriate density and induced overnight with IPTG. The supernatant of lysed cells was loaded onto Ni-IDA column for purification. Eluted protein was pooled, concentrated and further purified by size exclusion chromatography. Fractions representing monomeric protein were pooled, concentrated, aliquoted, and frozen at −80° C. for use in subsequent experiments.
For inhibition assays, serially diluted test compound was added to these reactions in a 0.2% final concentration of DMSO. Final buffer concentrations were 30 mM HEPES pH 7.4, 30 mM NaCl, 0.3 mM CHAPS, 20 mM phosphate pH 7.0, 320 mM KF, 0.08% BSA). […] The binding inhibitory activity was shown by a decrease in 665 nm fluorescence relative to 620 nm. IC50 values were determined from a dose response curve.

SMILES	FRET activity (<50 uM) (Brd4 bromodomain 1)	melting point
O=c1[nH]c(-c2ccc(O)cc2)cc2ccccc12 [Example 1, 3-(4-Hydroxyphenyl)-2H-isoquinolin-1-one]	Active	239 to 241 °C
COc1cc(OC)c2c(=O)[nH]c(-c3ccc(O)cc3)cc2c1 [Example 3, 3-(4-hydroxyphenyl)-6,8-dimethoxyisoquinolin-1(2H)-one]	Active	245 to 247 °C
COc1cc2c(c(OC)c1)S(=O)(=O)NC(c1cc(C)c(O)c(C)c1)=C2 [Example 12, 6,8-dimethoxy-3-(4-hydroxy-3,5-dimethylphenyl)-2H-1,2-benzothiazine-1,1-dioxide]	Active	246.6 to 247.4 °C
Cc1cc(-c2nc3ccccc3c(=O)[nH]2)cc(C)c1OCCO [Example 30, 2-(4-(2-hydroxyethoxy)-3,5-dimethylphenyl)quinazolin-4(3H)-one]	Inactive	260 to 261 °C
O=c1[nH]c(-c2ccc3c(c2)OCCO3)nc2ccccc12 [Example 31, 2-(2,3-dihydrobenzo[b][1,4]dioxin-6-yl)quinazolin-4(3H)-one]	Inactive	267 to 268 °C (dec.)
COc1cc(OC)c2c(=O)[nH]c(-c3ccc(N(C)C)c4ccccc34)nc2c1 [Example 32, 2-(4-(dimethylamino)naphthalen-1-yl)-5,7-dimethoxyquinazolin-4(3H)-one]	Inactive	269 to 271 °C
O=C(O)COc1ccc(-c2nc3ccccc3c(=O)[nH]2)cc1 [Example 34, 2-(4-(4-oxo-3,4-dihydroquinazolin-2-yl)phenoxy)acetic acid]	Inactive	285 to 287 °C
CN(C)c1ccc(-c2nc3ccccc3c(=O)[nH]2)c2ccccc12 [Example 35, 2-(4-(dimethylamino)naphthalen-1-yl)quinazolin-4(3H)-one]	Inactive	224 to 226 °C
NC(=O)COc1ccc(-c2nc3ccccc3c(=O)[nH]2)cc1 [Example 36, 2-(4-(4-oxo-3,4-dihydroquinazolin-2-yl)phenoxy)acetamide]	Inactive	277.5 to 278.5 °C
O=c1[nH]c(-c2ccc(N(CCO)CCO)cc2)nc2ccccc12 [Example 40, 2-(4-(bis(2-hydroxyethyl)amino)phenyl)quinazolin-4(3H)-one]	Inactive	228 to 230 °C
COc1cc(OC)c2c(=O)[nH]c(-c3ccc(N(CCO)CCO)cc3)nc2c1 [Example 41, 2-(4-(bis(2-hydroxyethyl)amino)phenyl)-5,7-dimethoxyquinazolin-4(3H)-one]	Active	249 to 251 °C
COc1cc2nc(-c3ccc4c(c3)OCCO4)[nH]c(=O)c2cc1OC [Example 43, 2-(2,3-dihydrobenzo[b][1,4]dioxin-6-yl)-6,7-dimethoxyquinazolin-4(3H)-one]	Inactive	316.4 to 318.2 °C
COc1cc(OC)c2c(=O)[nH]c(-c3cc(C)c(OCCN4CCOCC4)c(C)c3)cc2n1 [Example 45, 7-(3,5-dimethyl-4-(2-morpholinoethoxy)phenyl)-2,4-dimethoxy-1,6-naphthyridin-5(6H)-one]	Active	212.5 to 212.9 °C
CC(=O)Nc1ccc2nc(-c3cc(C)c(O)c(C)c3)[nH]c(=O)c2c1 [Example 49, N-(2-(4-hydroxy-3,5-dimethylphenyl)-4-oxo-3,4-dihydroquinazolin-6-yl)acetamide]	Inactive	336.5 °C (dec.)
COc1cc(OC)c2c(=O)[nH]c(-c3ccc(OC)c(CN4CCOCC4)c3)nc2c1 [Example 64, 5,7-dimethoxy-2-(4-methoxy-3-(morpholinomethyl)phenyl)quinazolin-4(3H)-one]	Active	282.7 to 284.5 °C

Continued, values first:

FRET activity (<50 uM) (Brd4 bromodomain 1)	melting point	SMILES
Active	252 to 254 °C	COc1cc(OC)c2c(=O)[nH]c(-c3cc(C)c(OCC(C)(C)O)c(C)c3)cc2c1 [Example 11, 3-(4-(2-hydroxy-2-methylpropoxy)-3,5-dimethylphenyl)-6,8-dimethoxyisoquinolin-1(2H)-one]
Inactive	229.7 to 230.5 °C	COc1cc(OC)c2c(=O)[nH]c(-c3cc(C(C)(C)C)c(O)c(C(C)(C)C)c3)nc2c1 [Example 23, 2-(3,5-di-tert-butyl-4-hydroxyphenyl)-5,7-dimethoxyquinazolin-4(3H)-one]
Inactive	270 to 272 °C	COc1cc(OC)cc(-c2nc3cc(OC)cc(OC)c3c(=O)[nH]2)c1 [Example 24, 2-(3,5-dimethoxyphenyl)-5,7-dimethoxyquinazolin-4(3H)-one]
Inactive	276 to 277 °C	COc1ccc(-c2nc3cc(OC)cc(OC)c3c(=O)[nH]2)cc1 [Example 25, 5,7-dimethoxy-2-(4-methoxyphenyl)quinazolin-4(3H)-one]
Active	294 to 296 °C	COc1cc(OC)c2c(=O)[nH]c(-c3ccc(O)c(OC)c3)nc2c1 [Example 26, 2-(4-hydroxy-3-methoxyphenyl)-5,7-dimethoxyquinazolin-4(3H)-one]
Active	279 to 281 °C	COc1cc(OC)c2c(=O)[nH]c(-c3ccc(O)c(Cl)c3)nc2c1 [Example 27, 2-(3-chloro-4-hydroxyphenyl)-5,7-dimethoxyquinazolin-4(3H)-one]
Active	309 to 311 °C	COc1cc(OC)c2c(=O)[nH]c(-c3ccc(OCC(N)=O)cc3)nc2c1 [Example 33, 2-(4-(5,7-dimethoxy-4-oxo-3,4-dihydroquinazolin-2-yl)phenoxy)acetamide]
Active	307.5 to 309.6 °C	COc1cc(OC)c2c(=O)[nH]c(-c3ccc4c(c3)OCCO4)nc2c1 [Example 37, 2-(2,3-dihydrobenzo[b][1,4]dioxin-6-yl)-5,7-dimethoxyquinazolin-4(3H)-one]
Active	> 300 °C	COc1cc2nc(-c3cc(C)c(O)c(C)c3)[nH]c(=O)c2cc1OC [Example 47, 2-(4-hydroxy-3,5-dimethylphenyl)-6,7-dimethoxyquinazolin-4(3H)-one]
Active	250.6 to 251.1 °C	COc1cc(OC)c2c(=O)[nH]c(-c3ccc(CCC(=O)O)cc3)nc2c1 [Example 48, 3-(4-(5,7-dimethoxy-4-oxo-3,4-dihydroquinazolin-2-yl)phenyl)propanoic acid]
Inactive	354 to 356 °C	COc1cc2nc(-c3cc(C)c(OCC(N)=O)c(C)c3)[nH]c(=O)c2cc1OC [Example 50, 2-(4-(6,7-dimethoxy-4-oxo-3,4-dihydroquinazolin-2-yl)-2,6-dimethylphenoxy)acetamide]
Inactive	287 to 288 °C (dec.)	COc1cc(OC)c2c(=O)[nH]c(-c3ccc(OCCO)c(Cl)c3)nc2c1 [Example 51, 2-(3-chloro-4-(2-hydroxyethoxy)phenyl)-5,7-dimethoxyquinazolin-4(3H)-one]
Inactive	> 300 °C	COc1cc2nc(-c3cc(C)c(OCCO)c(C)c3)[nH]c(=O)c2cc1OC [Example 53, 2-(4-(2-hydroxyethoxy)-3,5-dimethylphenyl)-6,7-dimethoxyquinazolin-4(3H)-one]
Active	190 to 192 °C	COc1cc(OC)c2c(=O)[nH]c(-c3cc(C)c(NC(=O)CO)c(C)c3)nc2c1 [Example 55, N-(4-(5,7-dimethoxy-4-oxo-3,4-dihydroquinazolin-2-yl)-2,6-dimethylphenyl)-2-hydroxyacetamide]
	224.9 to 225.4 °C	COc1cc(OC)c2c(=O)[nH]c(-c3cc(C)c(OCCO)c(C)c3)cc2n1 [Example 56, 7-(4-(2-hydroxyethoxy)-3,5-dimethylphenyl)-2,4-dimethoxy-1,6-naphthyridin-5(6H)-one]
Active	262 to 263 °C (dec.)	COc1cc(OC)c2c(=O)[nH]c(-c3cc(C)c(OC)c(C)c3)cc2n1 [Example 58, 2,4-dimethoxy-7-(4-methoxy-3,5-dimethylphenyl)-1,6-naphthyridin-5(6H)-one]
Inactive	318 to 319 °C	COc1cc(OC)c2c(=O)[nH]c(-c3ccc(NC(=O)CO)cc3)nc2c1 [Example 60, N-(4-(5,7-dimethoxy-4-oxo-3,4-dihydroquinazolin-2-yl)phenyl)-2-hydroxyacetamide]
Active	297 to 299 °C	COc1cc(OC)c2c(=O)[nH]c(-c3cc(C)c(O)c(C)c3)nc2n1 [Example 63, 2-(4-hydroxy-3,5-dimethylphenyl)-5,7-dimethoxypyrido[2,3-d]pyrimidin-4(3H)-one]
Active	255 to 256 °C	COc1cc(OC)c2c(=O)[nH]c(-c3cc(C)c(OCCO)c(C)c3)nc2n1 [Example 65, 2-(4-(2-hydroxyethoxy)-3,5-dimethylphenyl)-5,7-dimethoxypyrido[2,3-d]pyrimidin-4(3H)-one]
